Data set [1] can be described thus: Assay (III) ThT fibrillation assay for physical stability. The note with it: 250 μM in 10 mM HEPES buffer, 37° C., shaking 960 rpm. The data set is classed as physicochemical. An excerpt: The purpose of this assay is to assess the physical stability of the glucagon derivatives of the invention in aqueous solutions. Low physical stability of a peptide may lead to amyloid fibril formation, which is observed as well-ordered, thread-like macromolecular structures in the sample, which eventually may lead to gel formation. This has traditionally been measured by visual inspection of the sample. However, that kind of measurement is very subjective and depending on the observer. Therefore, the application of a small molecule indicator probe is much more advantageous. Thioflavin T (ThT) is such a probe and has a distinct fluorescence signature when binding to fibrils [Naiki et al. (1989) Anal. Biochem. 177, 244-249; LeVine (1999) Methods. Enzymol. 309, 274-284]. […] The constant t0 is the time needed to reach 50% of maximum fluorescence. The two important parameters describing fibril formation are the lag-time calculated by t0−2τ and the apparent rate constant kapp 1/τ. Samples were prepared freshly before each assay. Each sample composition is described in the legends. The pH of the sample was adjusted to the desired value using appropriate amounts of concentrated NaOH and HCl. Thioflavin T was added to the samples from a stock solution in H2O to a final concentration of 1 μM. Sample aliquots of 200 μl (250 μM of the glucagon derivative in 10 mM HEPES buffer, pH 7.5) were placed in a 96 well microtiter plate (Packard OptiPlate™-96, white polystyrene). Usually, four or eight replica of each sample (corresponding to one test condition) were placed in one column of wells. The plate was sealed with Scotch Pad (Qiagen). Incubation at given temperature, shaking and measurement of the ThT fluorescence emission were done in a Fluoroskan Ascent FL fluorescence platereader (Thermo Labsystems). The temperature was adjusted to 37° C. The plate was incubated with orbital shaking adjusted to 960 rpm with an amplitude of 1 mm. Fluorescence measurement was done using excitation through a 444 nm filter and measurement of emission through a 485 nm filter. Each run was initiated by incubating the plate at the assay temperature for 10 min. The plate was measured every 20 minutes for a desired period of time. Between each measurement, the plate was shaken and heated as described. After completion of the ThT assay the four or eight replica of each sample was pooled and centrifuged at 20000 rpm for 30 minutes at 18° C. The supernatant was filtered through a 0.22 μm filter and an aliquot was transferred to a HPLC vial. The concentration of peptide in the initial sample and in the filtered supernatant was determined by reverse phase HPLC using an appropriate standard as reference. The percentage fraction the concentration of the filtered sample constituted of the initial sample concentration was reported as the recovery. The measurement points were saved in Microsoft Excel format for further processing and curve drawing and fitting was performed using GraphPad Prism. The background emission from ThT in the absence of fibrils was negligible. The data points are typically a mean of four or eight samples and shown with standard deviation error bars. Only data obtained in the same experiment (i.e. samples on the same plate) are presented in the same graph ensuring a relative measure of fibrillation between experiments. The data set may be fitted to Eq. (1).

The next data set addresses T1, human GLP-1 receptor (Homo sapiens, UniProt P43220).
T1 construct: expressed in transfected cells; host or cells: membranes of BHK cells (parent BHKTS13), clone FCW467-12A
Nature of the data set: Assay (II)(a) GLP-1 receptor binding, 125I-GLP-1 displacement SPA on BHK membranes. The conditions noted are these: without presence of serum albumin; read-out: GLP-1R IC50 (nM) [Assay (II)(a)]. In outline:
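Membranes from BHK cells (clone FCW467-12A) stably expressing human GLP-1R were incubated with serially diluted compounds (8×10EE-13 to 8×10EE-7 M before addition) and [125I]-GLP-1-(7-36)NH2 with WGA SPA beads, 2 h at 30° C, pH 7.4. IC50 taken from displacement by non-linear regression. Run at ≤0.001% or 2.0% final serum albumin.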

Starred links: 1 amine or outer side, 2 acyl side, 3 side chain; linkers in the order of their positions; H or OH if unused. Non-standard residues stand in square brackets, D forms with d. Residues, ends and D or L forms follow the SMILES beside them. Groups on a side chain read outwards from the residue. *: point of attachment. C18 diacid = O=C(O)CCCCCCCCCCCCCCCCC(=O)*; γGlu = O=C(O)[C@H](CCC(=O)[*:2])N[*:1]; AEEA = NCCOCCOCC(=O)O; Aib = CC(C)(N)C(=O)O

The term IC50 denotes the concentration that inhibits the measured activity by half.

T1 sequence (P43220 24-463): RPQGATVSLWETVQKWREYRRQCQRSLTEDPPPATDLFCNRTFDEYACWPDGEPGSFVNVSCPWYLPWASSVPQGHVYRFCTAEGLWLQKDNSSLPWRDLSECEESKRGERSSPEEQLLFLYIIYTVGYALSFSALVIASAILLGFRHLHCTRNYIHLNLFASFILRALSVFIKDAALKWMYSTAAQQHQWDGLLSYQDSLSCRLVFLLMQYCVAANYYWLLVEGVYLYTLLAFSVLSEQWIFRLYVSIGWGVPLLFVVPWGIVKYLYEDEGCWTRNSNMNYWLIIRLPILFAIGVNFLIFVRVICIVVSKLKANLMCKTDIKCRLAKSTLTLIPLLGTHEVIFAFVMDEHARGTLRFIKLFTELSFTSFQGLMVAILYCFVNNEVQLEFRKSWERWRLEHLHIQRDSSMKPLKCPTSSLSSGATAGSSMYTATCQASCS

In the case of `CC[C@H](C)[C@H](NC(=O)[C@H](CC(C)C)NC(=O)[C@H](Cc1c[nH]c2ccccc12)NC(=O)[C@H](CCC(N)=O)NC(=O)[C@@H](NC(=O)[C@H](Cc1ccccc1)NC(=O)[C@H](CCC(=O)O)NC(=O)[C@H](CCCNC(=N)N)NC(=O)[C@H](C)NC(=O)[C@H](CCCNC(=N)N)NC(=O)[C@H](CCCNC(=N)N)NC(=O)[C@H](CC(C)C)NC(=O)[C@H](CC(=O)O)NC(=O)[C@H](CC(C)C)NC(=O)[C@H](Cc1ccc(O)cc1)NC(=O)[C@H](CCCCN)NC(=O)[C@H](CO)NC(=O)[C@H](CC(C)C)NC(=O)[C@H](CC(=O)O)NC(=O)[C@H](CO)NC(=O)[C@@H](NC(=O)[C@H](Cc1ccccc1)NC(=O)[C@@H](NC(=O)CNC(=O)[C@H](CCC(N)=O)NC(=O)C(C)(C)NC(=O)[C@@H](N)Cc1c[nH]cn1)[C@@H](C)O)[C@@H](C)O)C(C)C)C(=O)N[C@@H](CC(N)=O)C(=O)N[C@@H](CCCCNC(=O)CC[C@H](NC(=O)CC[C@H](NC(=O)COCCOCCNC(=O)COCCOCCNC(=O)CC[C@H](NC(=O)CCCCCCCCCCCCCCCCC(=O)O)C(=O)O)C(=O)O)C(=O)O)C(N)=O` [Chem. 22, N^ε29-[(4S)-4-carboxy-4-[[(4S)-4-carboxy-4-[[2-[2-[2-[[2-[2-[2-[[(4S)-4-carboxy-4-(17-carboxyheptadecanoylamino)butanoyl]amino]ethoxy]ethoxy]acetyl]amino]ethoxy]ethoxy]acetyl]amino]butanoyl]amino]butanoyl]-[Aib2,Leu10,Leu16,Arg20,Glu21,Ile27,Lys29]-Glucagon amide] (H-H[Aib]QGTFTSDLSKYLDLRRAREFVQWLINK([γGlu-γGlu-AEEA-AEEA-γGlu-C18 diacid])-NH2; N-terminus assumed), in data set [1], the “ThT Assay Lag time (h) [Assay (III), pH 7.5]” value (“ThT Assay Lag time (h)” below) is recorded as 45.0 h. The IC50 at human GLP-1 receptor was determined as 0.3 nM.
For the compound `CC[C@H](C)[C@H](NC(=O)[C@H](CC(C)C)NC(=O)[C@H](Cc1c[nH]c2ccccc12)NC(=O)[C@H](CCC(N)=O)NC(=O)[C@@H](NC(=O)[C@H](Cc1ccccc1)NC(=O)[C@H](CC(=O)O)NC(=O)[C@H](CCCNC(=N)N)NC(=O)[C@H](C)NC(=O)[C@H](CCCNC(=N)N)NC(=O)[C@H](CCCNC(=N)N)NC(=O)[C@H](CC(C)C)NC(=O)[C@H](CC(=O)O)NC(=O)[C@H](CC(C)C)NC(=O)[C@H](Cc1ccc(O)cc1)NC(=O)[C@H](CCCCN)NC(=O)[C@H](CO)NC(=O)[C@H](CC(C)C)NC(=O)[C@H](CC(=O)O)NC(=O)[C@H](CO)NC(=O)[C@@H](NC(=O)[C@H](Cc1ccccc1)NC(=O)[C@@H](NC(=O)CNC(=O)[C@H](CCC(N)=O)NC(=O)C(C)(C)NC(=O)[C@@H](N)Cc1c[nH]cn1)[C@@H](C)O)[C@@H](C)O)C(C)C)C(=O)N[C@@H](CC(N)=O)C(=O)N[C@@H](CCCCNC(=O)CC[C@H](NC(=O)CC[C@H](NC(=O)COCCOCCNC(=O)COCCOCCNC(=O)CC[C@H](NC(=O)CCCCCCCCCCCCCCCCC(=O)O)C(=O)O)C(=O)O)C(=O)O)C(N)=O` [Chem. 23, N^ε29-[(4S)-4-carboxy-4-[[(4S)-4-carboxy-4-[[2-[2-[2-[[2-[2-[2-[[(4S)-4-carboxy-4-(17-carboxyheptadecanoylamino)butanoyl]amino]ethoxy]ethoxy]acetyl]amino]ethoxy]ethoxy]acetyl]amino]butanoyl]amino]butanoyl]-[Aib2,Leu10,Leu16,Arg20,Ile27,Lys29]-Glucagon amide] (H-H[Aib]QGTFTSDLSKYLDLRRARDFVQWLINK([γGlu-γGlu-AEEA-AEEA-γGlu-C18 diacid])-NH2; N-terminus assumed), the “ThT Assay Lag time (h)” value in data set [1] is given as 45.0 h. The IC50 on human GLP-1 receptor is 0.3 nM.
In the same order, the values of `CC[C@H](C)[C@H](NC(=O)[C@H](CC(C)C)NC(=O)[C@H](Cc1c[nH]c2ccccc12)NC(=O)[C@H](CCC(N)=O)NC(=O)[C@@H](NC(=O)[C@H](Cc1ccccc1)NC(=O)[C@H](CCC(=O)O)NC(=O)[C@H](CCCNC(=N)N)NC(=O)[C@H](C)NC(=O)[C@H](CCCNC(=N)N)NC(=O)[C@H](CCCNC(=N)N)NC(=O)[C@H](CC(C)C)NC(=O)[C@H](CC(=O)O)NC(=O)[C@H](CC(C)C)NC(=O)[C@H](Cc1ccc(O)cc1)NC(=O)[C@H](CCCCN)NC(=O)[C@H](CO)NC(=O)[C@H](CC(C)C)NC(=O)[C@H](CC(=O)O)NC(=O)[C@H](CO)NC(=O)[C@@H](NC(=O)[C@H](Cc1ccccc1)NC(=O)[C@@H](NC(=O)CNC(=O)[C@H](CCC(N)=O)NC(=O)C(C)(C)NC(=O)[C@@H](N)Cc1c[nH]cn1)[C@@H](C)O)[C@@H](C)O)C(C)C)C(=O)N[C@@H](CO)C(=O)N[C@@H](CCCCNC(=O)CC[C@H](NC(=O)CC[C@H](NC(=O)COCCOCCNC(=O)COCCOCCNC(=O)CC[C@H](NC(=O)CCCCCCCCCCCCCCCCC(=O)O)C(=O)O)C(=O)O)C(=O)O)C(N)=O` [Chem. 30, N^ε29-[(4S)-4-carboxy-4-[[(4S)-4-carboxy-4-[[2-[2-[2-[[2-[2-[2-[[(4S)-4-carboxy-4-(17-carboxyheptadecanoylamino)butanoyl]amino]ethoxy]ethoxy]acetyl]amino]ethoxy]ethoxy]acetyl]amino]butanoyl]amino]butanoyl]-[Aib2,Leu10,Leu16,Arg20,Glu21,Ile27,Ser28,Lys29]-Glucagon amide] (H-H[Aib]QGTFTSDLSKYLDLRRAREFVQWLISK([γGlu-γGlu-AEEA-AEEA-γGlu-C18 diacid])-NH2; N-terminus assumed) are 45.0 h and 0.9 nM.
Consider `CC[C@H](C)[C@H](NC(=O)[C@H](CC(C)C)NC(=O)[C@H](Cc1c[nH]c2ccccc12)NC(=O)[C@H](C)NC(=O)[C@@H](NC(=O)[C@H](Cc1ccccc1)NC(=O)[C@H](CC(=O)O)NC(=O)[C@H](CCC(N)=O)NC(=O)[C@H](C)NC(=O)[C@H](CCCNC(=N)N)NC(=O)[C@H](CCCNC(=N)N)NC(=O)[C@H](CO)NC(=O)[C@H](CCC(=O)O)NC(=O)[C@H](CC(C)C)NC(=O)[C@H](Cc1ccc(O)cc1)NC(=O)[C@H](CCCCN)NC(=O)[C@H](CO)NC(=O)[C@H](Cc1ccc(O)cc1)NC(=O)[C@H](CC(=O)O)NC(=O)[C@H](CO)NC(=O)[C@@H](NC(=O)[C@H](Cc1ccccc1)NC(=O)[C@@H](NC(=O)CNC(=O)[C@H](CCC(N)=O)NC(=O)C(C)(C)NC(=O)[C@@H](N)Cc1c[nH]cn1)[C@@H](C)O)[C@@H](C)O)C(C)C)C(=O)N[C@@H](CO)C(=O)N[C@@H](CCCCNC(=O)CC[C@H](NC(=O)CC[C@H](NC(=O)COCCOCCNC(=O)COCCOCCNC(=O)CC[C@H](NC(=O)CCCCCCCCCCCCCCCCC(=O)O)C(=O)O)C(=O)O)C(=O)O)C(N)=O` [Chem. 35, N^ε29-[(4S)-4-carboxy-4-[[(4S)-4-carboxy-4-[[2-[2-[2-[[2-[2-[2-[[(4S)-4-carboxy-4-(17-carboxyheptadecanoylamino)butanoyl]amino]ethoxy]ethoxy]acetyl]amino]ethoxy]ethoxy]acetyl]amino]butanoyl]amino]butanoyl]-[Aib2,Glu15,Ala24,Ile27,Ser28,Lys29]-Glucagon amide] (H-H[Aib]QGTFTSDYSKYLESRRAQDFVAWLISK([γGlu-γGlu-AEEA-AEEA-γGlu-C18 diacid])-NH2), for which the “ThT Assay Lag time (h)” value in data set [1] was 45.0 h. For the same compound, the IC50 on human GLP-1 receptor amounted to 2.2 nM.

These data come from patent publication US10570184B2, “GLP-1/glucagon receptor co-agonists for medical use” (Novo Nordisk A/S, priority 2014, dated 2020).
